Numbers after ± are expanded uncertainties.
Legend:
[1] = molar heat capacity at constant pressure; conditions: 101.33 kPa, Liquid, Small sample (50 mg) DSC
[2] = refractive index (Na D-line) (dimensionless); conditions: 101.33 kPa, Liquid, Standard Abbe refractometry
[3] = 101.33 kPa, Liquid; for viscosity: Capillary tube (Ostwald / Ubbelohde) method

## C[S+](C)[O-] [dimethyl sulfoxide]
[1]; 288.15 K
  molar heat capacity at constant pressure: 146.8 ± 2.3 J/K/mol
[1]; 298.15 K
  molar heat capacity at constant pressure: 152.4 ± 2.4 J/K/mol
[1]; 308.15 K
  molar heat capacity at constant pressure: 154.6 ± 2.4 J/K/mol
[2]; 288.15 K
  refractive index: 1.4835 ± 0.0007
[2]; 298.15 K
  refractive index: 1.4778 ± 0.0006
[2]; 308.15 K
  refractive index: 1.473 ± 0.0006
[3]; 288.15 K
  mass density: 1105.39 ± 0.47 kg/m3
  viscosity: 2.473 ± 0.029 mPa·s
[3]; 298.15 K
  mass density: 1095.36 ± 0.45 kg/m3
  viscosity: 1.989 ± 0.023 mPa·s
[3]; 308.15 K
  mass density: 1085.31 ± 0.43 kg/m3
  viscosity: 1.644 ± 0.019 mPa·s

## CCCO [propan-1-ol]
[1]; 288.15 K
  molar heat capacity at constant pressure: 139 ± 2 J/K/mol
[1]; 293.15 K
  molar heat capacity at constant pressure: 142.3 ± 2.2 J/K/mol
[1]; 298.15 K
  molar heat capacity at constant pressure: 144.9 ± 2.2 J/K/mol
[1]; 303.15 K
  molar heat capacity at constant pressure: 148.2 ± 2.3 J/K/mol
[1]; 308.15 K
  molar heat capacity at constant pressure: 151 ± 2.3 J/K/mol
[1]; 313.15 K
  molar heat capacity at constant pressure: 153.7 ± 2.4 J/K/mol
[1]; 318.15 K
  molar heat capacity at constant pressure: 157.1 ± 2.4 J/K/mol
[1]; 323.15 K
  molar heat capacity at constant pressure: 160.1 ± 2.5 J/K/mol
[1]; 328.15 K
  molar heat capacity at constant pressure: 164.5 ± 2.6 J/K/mol
[1]; 333.15 K
  molar heat capacity at constant pressure: 167.8 ± 2.6 J/K/mol
[2]; 288.15 K
  refractive index: 1.3893 ± 0.0007
[2]; 298.15 K
  refractive index: 1.3837 ± 0.0006
[2]; 308.15 K
  refractive index: 1.3795 ± 0.0005
[3]; 288.15 K
  mass density: 807.51 ± 0.28 kg/m3
  viscosity: 2.498 ± 0.028 mPa·s
[3]; 298.15 K
  mass density: 799.54 ± 0.29 kg/m3
  viscosity: 1.952 ± 0.022 mPa·s
[3]; 308.15 K
  mass density: 791.41 ± 0.3 kg/m3
  viscosity: 1.564 ± 0.018 mPa·s

Reference: the NIST ThermoML archive (doi:10.1021/je0601513)
